Molecules are shown by their SMILES.

For this experiment, the system named is NFkB activity. The experiment in a line: Glucocorticoid mediated transrepression of NFkB activity (A549 cells, ELAM promoter alkaline phosphatase reporter, TNFα stimulated). The class given is cell-based. The conditions noted are these: Homo sapiens, A549, 16 h, Human A549 lung epithelial cells, 3 ng/ml human recombinant TNFα, read-out: pEC50, transrepression of NFkB activity (converted). An excerpt: Human A549 lung epithelial cells were engineered to contain a secreted placental alkaline phosphatase gene under the control of the distal region of the NFkB dependent ELAM promoter as previously described in Ray, K. P., Farrow, S., Daly, M., Talabot, F. and Searle, N. “Induction of the E-selectin promoter by interleukin 1 and tumour necrosis factor alpha, and inhibition by glucocorticoids” Biochemical Journal (1997) 328: 707-15.
Compounds were solvated and diluted in DMSO, and transferred directly into assay plates such that the final concentration of DMSO was 0.7%. Following the addition of cells (40K per well), plates were incubated for 1 hr prior to the addition of 3 ng/ml human recombinant TNFα. Following continued incubation for 16 hr, alkaline phosphatase activity was determined by measuring the change in optical density at 405 nm with time following the addition of 0.7 volumes of assay buffer (1 mg/ml p-nitrophenylphosphate dissolved in 1M diethanolamine, 0.28M NaCl, 0.5 mM MgCl2). Dose response curves were constructed from which EC50 values were estimated.

`COc1ccc(F)cc1C(C)(C)CC(O)(CNc1cccc2c1cnn2-c1ccccc1F)C(F)(F)F` (racemic) [Example 1, 1,1,1-Trifluoro-4-[5-fluoro-2-(methyloxy)phenyl]-2-({[1-(2-fluorophenyl)-1H-indazol-4-yl]amino}methyl)-4-methyl-2-pentanol]: the EC50 was less than 3.16 nM.
As to `COc1ccc(F)cc1C(C)(C)CC(O)(CNc1cccc2c1cnn2-c1ccc(F)cc1)C(F)(F)F` (racemic) [Example 2, 1,1,1-Trifluoro-4-[5-fluoro-2-(methyloxy)phenyl]-2-({[1-(4-fluorophenyl)-1H-indazol-4-yl]amino}methyl)-4-methyl-2-pentanol], the EC50 is less than 3.16 nM.
On to `COc1ccc(F)cc1C(C)(C)CC(O)(CNc1cccc2c1cnn2-c1ccc(F)cc1F)C(F)(F)F` (racemic) [Example 4, 2-({[1-(2,4-Difluorophenyl)-1H-indazol-4-yl]amino}methyl)-1,1′-trifluoro-4-[5-fluoro-2-(methyloxy)phenyl]-4-methyl-2-pentanol], for which the EC50 was less than 3.16 nM.
To `CCOC(=O)c1cccc(-n2ncc3c(NCC(O)(CC(C)(C)c4cc(F)ccc4OC)C(F)(F)F)cccc32)c1` (racemic) [Example 6, Ethyl 3-(4-{[4-[5-fluoro-2-(methyloxy)phenyl]-2-hydroxy-4-methyl-2-(trifluoromethyl)pentyl]amino}-1H-indazol-1-yl)benzoate] belongs less than 3.16 nM; to `CC(C)(CC(O)(CNc1cccc2c1cnn2-c1ccccc1)C(F)(F)F)c1cccc2c1OCC2` (racemic) [Example 8, 4-(2,3-Dihydro-1-benzofuran-7-yl)-1,1,1-trifluoro-4-methyl-2-{[(1-phenyl-1H-indazol-4-yl)amino]methyl}-2-pentanol], less than 3.16 nM.
For `CCOC(=O)c1cccc(-n2ncc3c(NCC(O)(CC(C)(C)c4cccc5c4OCC5)C(F)(F)F)cccc32)c1` (racemic) [Example 9, Ethyl 3-(4-{[4-(2,3-dihydro-1-benzofuran-7-yl)-2-hydroxy-4-methyl-2-(trifluoromethyl)pentyl]amino}-1H-indazol-1-yl)benzoate], the EC50 was less than 3.16 nM.
Consider `CC(C)(CC(O)(CNc1cccc2c1cnn2-c1ccccc1F)C(F)(F)F)c1cccc2c1OCC2` (racemic) [Example 10, 4-(2,3-Dihydro-1-benzofuran-7-yl)-1,1,1-trifluoro-2-({[1-(2-fluorophenyl)-1H-indazol-4-yl]amino}methyl)-4-methyl-2-pentanol], for which the EC50 was less than 3.16 nM.
In the case of `CC(C)(CC(O)(CNc1cccc2c1cnn2-c1ccc(F)cc1)C(F)(F)F)c1cccc2c1OCC2` (racemic) [Example 11, 4-(2,3-Dihydro-1-benzofuran-7-yl)-1,1,1-trifluoro-2-({[1-(4-fluorophenyl)-1H-indazol-4-yl]amino}methyl)-4-methyl-2-pentanol] it was less than 3.16 nM.
On to `CC(C)(CC(O)(CNc1cccc2c1cnn2-c1ccc(F)cc1F)C(F)(F)F)c1cccc2c1OCC2` (racemic) [Example 12, 2-({[1-(2,4-Difluorophenyl)-1H-indazol-4-yl]amino}methyl)-4-(2,3-dihydro-1-benzofuran-7-yl)-1,1,1-trifluoro-4-methyl-2-pentanol], for which the EC50 was less than 3.16 nM.
In the case of `CC(C)(CC(O)(CNc1cccc2c1cnn2-c1ccncc1)C(F)(F)F)c1cccc2c1OCC2` (racemic) [Example 13, 4-(2,3-Dihydro-1-benzofuran-7-yl)-1,1,1-trifluoro-4-methyl-2-({[1-(4-pyridinyl)-1H-indazol-4-yl]amino}methyl)-2-pentanol] it was less than 3.16 nM; in that of `COC(=O)c1cccc(-n2ncc3c(NCC(O)(CC(C)(C)c4cc(F)ccc4OC)C(F)(F)F)cccc32)c1` (racemic) [Example 14, Methyl 3-(4-{[4-[5-fluoro-2-(methyloxy)phenyl]-2-hydroxy-4-methyl-2-(trifluoromethyl)pentyl]amino}-1H-indazol-1-yl)benzoate], less than 3.16 nM; in that of `COc1ccc(F)cc1C(C)(C)CC(O)(CNc1cc(C)cc2c1cnn2-c1ccccc1)C(F)(F)F` (racemic) [Example 15, 1,1,1-Trifluoro-4-[5-fluoro-2-(methyloxy)phenyl]-4-methyl-2-{[(6-methyl-1-phenyl-1H-indazol-4-yl)amino]methyl}-2-pentanol], less than 3.16 nM.
Take `COc1ccc(F)cc1C(C)(C)CC(O)(CNc1cc(C)cc2c1cnn2-c1ccc(F)cc1F)C(F)(F)F` (racemic) [Example 16, 2-({[1-(2,4-Difluorophenyl)-6-methyl-1H-indazol-4-yl]amino}methyl)-1,1,1-trifluoro-4-[5-fluoro-2-(methyloxy)phenyl]-4-methyl-2-pentanol]: the EC50 was less than 3.16 nM.
To `COc1ccc(F)cc1C(C)(C)CC(O)(CNc1cc(C)cc2c1cnn2-c1ccccc1F)C(F)(F)F` (racemic) [Example 25, 1,1,1-Trifluoro-4-[5-fluoro-2-(methyloxy)phenyl]-2-({[1-(2-fluorophenyl)-6-methyl-1H-indazol-4-yl]amino}methyl)-4-methyl-2-pentanol] belongs less than 3.16 nM; to `COc1ccc(-n2ncc3c(NCC(O)(CC(C)(C)c4cccc5c4OCC5)C(F)(F)F)cccc32)cc1` (racemic) [Example 28, 4-(2,3-Dihydro-1-benzofuran-7-yl)-1,1,1-trifluoro-4-methyl-2-[({1-[4-(methyloxy)phenyl]-1H-indazol-4-yl}amino)methyl]-2-pentanol], less than 3.16 nM; to `COc1ccc(F)cc1C(C)(C)CC(O)(CNc1cccc2c1cnn2-c1ccccc1F)C(F)(F)F` (single isomer, unassigned) [Example 1-A, 1,1,1-Trifluoro-4-[5-fluoro-2-(methyloxy)phenyl]-2-({[1-(2-fluorophenyl)-1H-indazol-4-yl]amino}methyl)-4-methyl-2-pentanol], less than 3.16 nM.
As to `COc1ccc(F)cc1C(C)(C)CC(O)(CNc1cccc2c1cnn2-c1ccc(F)cc1)C(F)(F)F` (single isomer, unassigned) [Example 2-B, 1,1,1-Trifluoro-4-[5-fluoro-2-(methyloxy)phenyl]-2-({[1-(4-fluorophenyl)-1H-indazol-4-yl]amino}methyl)-4-methyl-2-pentanol], the EC50 is less than 3.16 nM.
With `CCOC(=O)c1cccc(-n2ncc3c(NCC(O)(CC(C)(C)c4cc(F)ccc4OC)C(F)(F)F)cccc32)c1` (single isomer, unassigned) [Example 6-B, Ethyl 3-(4-{[4-[5-fluoro-2-(methyloxy)phenyl]-2-hydroxy-4-methyl-2-(trifluoromethyl)pentyl]amino}-1H-indazol-1-yl)benzoate], the EC50 is less than 3.16 nM.
Consider `COC(=O)c1cccc(-n2ncc3c(NCC(O)(CC(C)(C)c4cc(F)ccc4OC)C(F)(F)F)cccc32)c1` (single isomer, unassigned) [Example 14-B, Methyl 3-(4-{[4-[5-fluoro-2-(methyloxy)phenyl]-2-hydroxy-4-methyl-2-(trifluoromethyl)pentyl]amino}-1H-indazol-1-yl)benzoate], for which the EC50 was less than 3.16 nM.
In the case of `Cc1cc(NC[C@](O)(CC(C)(C)c2cc(F)ccc2O)C(F)(F)F)c2cnn(-c3ccc(F)cc3F)c2c1` [Example 18, 2(R)-2-[3-({[1-(2,4-Difluorophenyl)-6-methyl-1H-indazol-4-yl]amino}methyl)-4,4,4-trifluoro-3-hydroxy-1,1-dimethylbutyl]-4-fluorophenol] it was less than 3.16 nM; in that of `COc1ccc(-n2ncc3c(NCC(O)(CC(C)(C)c4cc(F)ccc4OC)C(F)(F)F)cc(C)cc32)cc1` (stereo not drawn) [Example 19, 1,1,1-Trifluoro-4-[5-fluoro-2-(methyloxy)phenyl]-4-methyl-2-[({6-methyl-1-[4-(methyloxy)phenyl]-1H-indazol-4-yl}amino)methyl]-2-pentanol], less than 3.16 nM.
As to `COc1cccc(-n2ncc3c(NCC(O)(CC(C)(C)c4cc(F)ccc4OC)C(F)(F)F)cc(C)cc32)c1` (stereo not drawn) [Example 22, 1,1,1-Trifluoro-4-[5-fluoro-2-(methyloxy)phenyl]-4-methyl-2-[({6-methyl-1-[3-(methyloxy)phenyl]-1H-indazol-4-yl}amino)methyl]-2-pentanol], the EC50 is less than 3.16 nM.
In the case of `COc1ccc(F)cc1C(C)(C)CC(O)(CNc1cc(C)cc2c1cnn2-c1cccc(O)c1)C(F)(F)F` (stereo not drawn) [Example 23, 3-(4-{[4-[5-Fluoro-2-(methyloxy)phenyl]-2-hydroxy-4-methyl-2-(trifluoromethyl)pentyl]amino}-6-methyl-1H-indazol-1-yl)phenol] it was less than 3.16 nM; in that of `CCOC(=O)c1cccc(-n2ncc3c(NCC(O)(CC(C)(C)c4cc(F)ccc4OC)C(F)(F)F)cc(C)cc32)c1` (stereo not drawn) [Example 27, Ethyl 3-(4-{[4-[5-fluoro-2-(methyloxy)phenyl]-2-hydroxy-4-methyl-2-(trifluoromethyl)pentyl]amino}-6-methyl-1H-indazol-1-yl)benzoate], less than 3.16 nM.

The record behind these values is patent US8093281B2, “Indazoles as glucocorticoid receptor ligands” (Glaxo Group Limited, priority 2005, dated 2012).
